The text below walks through data of patent publication US12331054B2, “Perk inhibiting imidazolopyrazine compounds” (HiberCell, Inc., priority 2019, dated 2025).

For assay [1], the target named is Recombinant human EIF2AK3 (PERK) catalytic domain (amino acids 536-1116) (Homo sapiens (Human), UniProt Q9NZJ5). Briefly: PERK In Vitro Activity Assay (isolated), TR-FRET kinase assay. The conditions noted are these: isolated PERK enzyme, 1.5 μM ATP, read-out: Biochemical IC50. An excerpt:
PERK In Vitro Activity Assay (isolated):
In vitro Inhibition of PERK Enzyme Activity (isolated) Recombinant human EIF2AK2 (PKR) catalytic domain (amino acids 252-551), EIF2AK3 (PERK) catalytic domain (amino acids 536-1116), GFP-eIF2a substrate, and Terbium-labelled phospho-eIF2a antibody is obtained (Invitrogen, Carlsbad, CA).
Express and purify HIS-SUMO-GCN2 catalytic domain (amino acids 584-1019) from E. coli. Perform TR-FRET kinase assays in the absence or presence of inhibitors in a reaction buffer consisting of 50 mM HEPES, pH 7.5, 10 mM MgCb, 1.0 mM EGTA, and 0.01% Brij-35, and 100-200 nM GFP-eIF2a substrate. […] Add test compound, initiate the reaction by addition of enzyme, and incubate at room temperature for 45 minutes. Stop the reaction by addition of EDTA to a final concentration of 10 mM, add Terbium-labelled phospho-eIF2a antibody at a final concentration of 2 nM, and incubate for 90 minutes. Monitor the resulting fluorescence in an EnVison® Multilabel reader (PerkinElmer, Waltham, MA). Determine TR-FRET ratios and the resulting IC50 values using a 4-parameter nonlinear logistic equation as shown: Y=(A+((B−A)/(1+(C/x)AD)))) where, Y=% specific inhibition, A=Bottom of the curve, B=Top of the curve, C=absolute IC50 (concentration causing 50% inhibition), and D=hill slope.
For orientation: In TR-FRET formats the signal depends on donor and acceptor labels being close together.

The subject of assay [2] is eIF2α in HEK293-EGFP-eIF2α cells. As to the kind of experiment: PERK Cellular Assay (HEK293-EGFP-eIF2α cells, tunicamycin-induced ER stress, TR-FRET). The conditions noted are these: tunicamycin 2 hours. The assay is classed as cell-based. Here is the method: Stable cell lines were created in HEK293 cells using lentiviral particles harboring an expression vector for GFP-eIF2α. Cells were selected using puromycin and enriched using fluorescence activated cell sorting against GFP. HEK293-EGFP-eIF2α cells were plated at 5000 cells/well in 384-well assay plates and incubated overnight at 37° C., 5% CO2. Inhibitor compounds were added to the wells by Echo acoustic dispensing and incubated for 30 minutes at 37° C., 5% CO2 prior to induction of ER stress by addition of tunicamycin to […] for 2 hours. Cells were lysed and TR-FRET was measured in an EnVision plate reader (PerkinElmer). FRET ratio data was normalized to signal from lysates treated with DMSO vehicle control and plotted as percent inhibition against 10-point; 3-fold dilution series of inhibitors. IC50 values were calculated using 4-parameter logistical fitting in XLFit.

Chain of Recombinant human EIF2AK3 (PERK) catalytic domain (amino acids 536-1116) (Q9NZJ5 536-1116): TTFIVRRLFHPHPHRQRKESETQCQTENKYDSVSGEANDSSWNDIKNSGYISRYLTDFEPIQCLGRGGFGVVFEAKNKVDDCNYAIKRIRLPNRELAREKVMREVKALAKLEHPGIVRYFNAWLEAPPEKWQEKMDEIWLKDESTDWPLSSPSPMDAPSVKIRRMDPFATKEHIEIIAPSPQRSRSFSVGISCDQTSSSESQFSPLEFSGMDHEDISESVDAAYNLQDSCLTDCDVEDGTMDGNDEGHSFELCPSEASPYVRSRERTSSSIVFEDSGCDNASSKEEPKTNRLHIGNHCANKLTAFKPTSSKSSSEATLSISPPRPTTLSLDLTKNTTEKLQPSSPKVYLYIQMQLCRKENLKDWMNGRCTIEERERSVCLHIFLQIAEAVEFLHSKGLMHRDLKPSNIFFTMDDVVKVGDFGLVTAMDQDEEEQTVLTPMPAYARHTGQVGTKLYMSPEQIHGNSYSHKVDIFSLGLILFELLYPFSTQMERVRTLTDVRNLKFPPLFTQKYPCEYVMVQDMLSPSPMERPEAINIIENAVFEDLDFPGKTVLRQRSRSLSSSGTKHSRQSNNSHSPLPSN

Take `[2H]C([2H])([2H])c1nc(-c2ccc(NC(=O)C(O)c3cccc(Cl)c3)cc2C)c2c(N)ncc(C)n12` (stereo not drawn) [Example 36, N-[4-[8-amino-5-methyl-3-(trideuteriomethyl)imidazo[1,5-a]pyrazin-1-yl]-3-methyl-phenyl]-2-(3-chlorophenyl)-2-hydroxy-acetamide]: the IC50 in assay [1] and in assay [2] was 1 to 25 nM each time. `[2H]C([2H])([2H])c1nc(-c2ccc(NC(=O)C(O)c3cc(F)cc(C(F)(F)F)c3)cc2C)c2c(N)ncc(Cl)n12` (stereo not drawn) [Example 57, N-[4-[8-amino-5-chloro-3-(trideuteriomethyl)imidazo[1,5-a]pyrazin-1-yl]-3-methyl-phenyl]-2-[3-fluoro-5-(trifluoromethyl)phenyl]-2-hydroxy-acetamide]: the IC50 – broadly, the concentration at which inhibition is half-maximal – in assay [1] was 1 to 25 nM; in assay [2], 26 to 50 nM.

In assay [2], `[2H]C([2H])([2H])c1nc(-c2ccc(NC(=O)C(O)c3cccc(F)c3)c(F)c2)c2c(N)nc(C)cn12` (stereo not drawn) [Example 120, N-[4-[8-amino-6-methyl-3-(trideuteriomethyl)imidazo[1,5-a]pyrazin-1-yl]-2-fluorophenyl]-2-(3-fluorophenyl)-2-hydroxy-acetamide] gave an IC50 of 1000 to 2000 nM. `[2H]C([2H])([2H])c1nc(-c2ccc(NC(=O)C(O)c3cccc(C)c3)cc2F)c2c(N)ncc(C)n12` (stereo not drawn) [Example 91, N-[4-[8-amino-5-methyl-3-(trideuteriomethyl)imidazo[1,5-a]pyrazin-1-yl]-3-fluoro-phenyl]-2-hydroxy-2-(m-tolyl)acetamide]: the IC50 in assay [1] fell in the range of 1 to 25 nM; in assay [2] it was 51 to 100 nM. The like results for `[2H]C([2H])([2H])c1nc(-c2ccc(NC(=O)C(O)c3cccc(Cl)c3)cc2F)c2c(N)ncc(C)n12` (stereo not drawn) [Example 85, N-[4-[8-amino-5-methyl-3-(trideuteriomethyl)imidazo[1,5-a]pyrazin-1-yl]-3-fluoro-phenyl]-2-(3-chlorophenyl)-2-hydroxy-acetamide] were, in that order, 1 to 25 nM and 51 to 100 nM. Turning to `Cc1cnc(N)c2c(-c3ccc(NC(=O)C(O)c4cccc(F)c4)cc3)nc(C)n12` (stereo not drawn) [Example 69, N-(4-(8-amino-3,5-dimethylimidazo [1,5-a]pyrazin-1-yl)phenyl)-2-(3-fluorophenyl)-2-hydroxyacetamide], the IC50 in assay [1] and in assay [2] was 1 to 25 nM in each case. As for `[2H]C([2H])([2H])c1nc(-c2ccc(NC(=O)C(O)c3cccc(C(F)(F)F)c3)cc2F)c2c(N)ncc(C(F)(F)F)n12` (stereo not drawn) [Example 98, N-[4-[8-amino-3-(trideuteriomethyl)-5-(trifluoromethyl)imidazo[1,5-a]pyrazin-1-yl]-3-fluoro-phenyl]-2-hydroxy-2-[3-(trifluoromethyl)phenyl]acetamide], the IC50 in assay [1] lay within 1 to 25 nM; in assay [2] it was 26 to 50 nM. The like results for `[2H]C([2H])([2H])c1nc(-c2ccc(NC(=O)C(O)c3cc(F)cc(C(F)(F)F)c3)cc2C)c2c(N)ncc(Cl)n12` (stereo not drawn) [Example 56, N-[4-[8-amino-5-chloro-3-(trideuteriomethyl)imidazo[1,5-a]pyrazin-1-yl]-3-methyl-phenyl]-2-[3-fluoro-5-(trifluoromethyl)phenyl]-2-hydroxy-acetamide] were, in that order, 1 to 25 nM and 1 to 25 nM.

With `Cc1cccc(C(O)C(=O)Nc2ccc(-c3nc(C)n4c(C)cnc(N)c34)c(F)c2)c1` (stereo not drawn) [Example 88, N-(4-(8-amino-3,5-dimethylimidazo [1,5-a]pyrazin-1-yl)-3-fluoro-phenyl)-2-hydroxy-2-(m-tolyl)acetamide], the IC50 in assay [1] and in assay [2] was 1 to 25 nM throughout. In assay [2], `Cc1cn2c(C3CC(C)(O)C3)nc(-c3ccc(NC(=O)C(O)c4cccc(F)c4)cc3C)c2c(N)n1` (stereo not drawn) [Example 25, N-(4-(8-amino-3-(3-hydroxy-3-methylcyclobutyl)-6-methylimidazo [1,5-a]pyrazin-1-yl)-3-methyl-phenyl)-2-(3-fluorophenyl)-2-hydroxyacetamide] had an IC50 of 1000 to 2000 nM.

`[2H]C([2H])([2H])c1nc(-c2ccc(NC(=O)C(O)c3cccc(F)c3)cc2C)c2c(N)ncc(C)n12` (stereo not drawn) [Example 11, N-(4-(8-amino-5-methyl-3-(trideuteriomethyl)imidazo[1,5-a]pyrazin-1-yl)-3-methylphenyl)-2-(3-fluorophenyl)-2-hydroxyacetamide] registered an IC50 in assay [2] of 1 to 25 nM. The same measure, in the same setting: under `[2H]C([2H])([2H])c1nc(-c2ccc(NC(=O)C(O)c3cccc(F)c3)c(F)c2)c2c(N)nc(C)cn12` (stereo not drawn) [Example 121, N-[4-[8-amino-6-methyl-3-(trideuteriomethyl)imidazo[1,5-a]pyrazin-1-yl]-2-fluorophenyl]-2-(3-fluorophenyl)-2-hydroxy-acetamide] stands 51 to 100 nM. In the case of `[2H]C([2H])([2H])c1nc(-c2ccc(NC(=O)C(O)c3cccc(Cl)c3)cc2F)c2c(N)ncc(Cl)n12` (stereo not drawn) [Example 86, N-[4-[8-amino-5-chloro-3-(trideuteriomethyl)imidazo[1,5-a]pyrazin-1-yl]-3-fluoro-phenyl]-2-(3-chlorophenyl)-2-hydroxy-acetamide], the IC50 in assay [1] lay within 1 to 25 nM. In the case of `[2H]C([2H])([2H])c1nc(-c2ccc(NC(=O)C(O)c3cccc(C(F)(F)F)c3)cc2F)c2c(N)nc(C)cn12` (stereo not drawn) [Example 97, N-[4-[8-amino-6-methyl-3-(trideuteriomethyl)imidazo[1,5-a]pyrazin-1-yl]-3-fluoro-phenyl]-2-hydroxy-2-[3-(trifluoromethyl)phenyl]acetamide], the half-maximal inhibitory concentration (IC50) in assay [2] was 251 to 500 nM. Same read-out and setting: next, `[2H]C([2H])([2H])c1nc(-c2ccc(NC(=O)C(O)c3cc(F)cc(F)c3)cc2C)c2c(N)ncc(Cl)n12` (stereo not drawn) [Example 49, N-[4-[8-amino-5-chloro-3-(trideuteriomethyl)imidazo[1,5-a]pyrazin-1-yl]-3-methyl-phenyl]-2-(3,5-difluoro-phenyl)-2-hydroxy-acetamide]: 1 to 25 nM; `[2H]C([2H])([2H])c1nc(-c2ccc(NC(=O)C(O)c3cccc(F)c3)nc2C)c2c(N)ncc(C)n12` (stereo not drawn) [Example 172, N-[5-[8-amino-5-methyl-3-(trideuteriomethyl)imidazo[1,5-a]pyrazin-1-yl]-6-methyl-2-pyridyl]-2-(3-fluorophenyl)-2-hydroxy-acetamide]: 501 to 1000 nM. On the same count and under the same terms, under `[2H]C([2H])([2H])c1nc(-c2ccc(NC(=O)C(O)c3cccc(C(F)(F)F)c3)cc2F)c2c(N)ncc(Cl)n12` (stereo not drawn) [Example 101, N-[4-[8-amino-5-chloro-3-(trideuteriomethyl)imidazo[1,5-a]pyrazin-1-yl]-3-fluoro-phenyl]-2-hydroxy-2-[3-(trifluoromethyl)phenyl]acetamide] stands 1 to 25 nM. As for `[2H]C([2H])([2H])c1nc(-c2ccc(NC(=O)C(O)c3cccc(Cl)c3)cc2C)c2c(N)ncc(C(F)(F)F)n12` (stereo not drawn) [Example 40, N-[4-[8-amino-3-(trideuteriomethyl)-5-(trifluoromethyl)imidazo[1,5-a]pyrazin-1-yl]-3-methyl-phenyl]-2-(3-chlorophenyl)-2-hydroxy-acetamide], in assay [1], the IC50 lay in the range of 1 to 25 nM. In assay [2], `Cc1cn2c(C)nc(-c3ccc(NC(=O)C(O)c4cccc(F)c4)c(F)c3)c2c(N)n1` (stereo not drawn) [Example 118, N-(4-(8-amino-3,6-dimethyl-imidazo[1,5-a]pyrazin-1-yl)-2-fluorophenyl)-2-(3-fluorophenyl)-2-hydroxy-acetamide] gave an IC50 of 4000 to 5000 nM.

In the case of `Cc1cn2c(C3CC(C)(O)C3)nc(-c3ccc(NC(=O)C(O)c4cccc(F)c4)cc3C)c2c(N)n1` (stereo not drawn) [Example 24, N-(4-(8-amino-3-(3-hydroxy-3-methylcyclobutyl)-6-methylimidazo [1,5-a]pyrazin-1-yl)-3-methyl-phenyl)-2-(3-fluorophenyl)-2-hydroxyacetamide], the IC50 in assay [2] fell in the range of 101 to 250 nM.

As for `[2H]C([2H])([2H])c1nc(-c2ccc(NC(=O)C(O)c3cc(F)cc(F)c3)cc2F)c2c(N)ncc(Cl)n12` (stereo not drawn) [Example 109, N-[4-[8-amino-5-chloro-3-(trideuteriomethyl)imidazo[1,5-a]pyrazin-1-yl]-3-fluoro-phenyl]-2-(3,5-difluoro-phenyl)-2-hydroxy-acetamide], in assay [2], the IC50 lay within 1 to 25 nM. Still for that read-out and setting: under `Cc1cn2c(C)nc(-c3ccc(NC(=O)C(O)c4cccc(F)c4)c(F)c3)c2c(N)n1` (stereo not drawn) [Example 119, N-(4-(8-amino-3,6-dimethyl-imidazo[1,5-a]pyrazin-1-yl)-2-fluorophenyl)-2-(3-fluorophenyl)-2-hydroxy-acetamide] stands 26 to 50 nM.
